From patent publication US20200115357A1, “LIVER X RECEPTORS (LXR) MODULATORS” (Phenex-FXR GmbH, priority 2017, published 2020)
pEC50: −log10 of the molar value.

Experiments:
[1] = target: T1, GST-LXRβ ligand-binding domain (Homo sapiens, UniProt P55055, DUP175-175); experiment: TR-FRETβ activity assay (LXRβ-LBD / NCoA3 coactivator peptide, prestimulated with 24(S)-25-epoxycholesterol); type: biochemical; design: key to behavior in FRET assay: ag=agonist; ia=inverse agonist; details: for pEC50: 1 μM 24(S)-25-epoxycholesterol as prestimulating agonist, read-out: FRETβ activity range (EC50); for behavior in FRET assay: agonist or inverse agonist
T1 construct: amino acids 156-461; NP009052; made in house; host or cells: E. coli
T1 sequence (P55055 with tags, fused parts or gaps DUP175-175): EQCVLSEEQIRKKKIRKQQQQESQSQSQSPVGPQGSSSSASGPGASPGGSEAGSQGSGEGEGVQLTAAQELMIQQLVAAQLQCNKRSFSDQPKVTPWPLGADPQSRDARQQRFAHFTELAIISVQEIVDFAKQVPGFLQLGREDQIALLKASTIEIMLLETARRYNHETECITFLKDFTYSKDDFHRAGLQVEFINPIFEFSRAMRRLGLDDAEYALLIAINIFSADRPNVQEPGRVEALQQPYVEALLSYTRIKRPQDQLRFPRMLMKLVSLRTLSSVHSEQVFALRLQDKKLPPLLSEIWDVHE
Experimental: The tested compounds were usually dissolved, tested and stored as 20 mM stock solutions in DMSO. […] Sulfonyl acetic acid derivatives are shelf stable as solid at rt for long time as reported by Griesbrecht et al. (Synlett 2010:374) or Faucher et al. (J. Med. Chem. 2004; 47:18). TR-FRETβ Activity Assay Recombinant GST-LXRβ ligand-binding domain (LBD; amino acids 156-461; NP009052; SEQ ID NO:2) was expressed in E. coli and purified via gluthatione-sepharose affinity chromatography. N-terminally biotinylated NCoA3 coactivator peptide (SEQ ID NO:1) was chemically synthesized (Eurogentec). […] Finally, a detection mix was added containing anti GST-Tb cryptate (CisBio; 610SAXLB) and Streptavidin-XL665 (CisBio; 610SAXLB) as fluorescent donor and acceptor, respectively, as well as the coactivator peptide and LXRβ-LBD protein (SEQ ID NO:2). The reaction was mixed thoroughly, equilibrated for 1 h at 4° C. and vicinity of LXRβ and coactivator peptide was detected by measurement of fluorescence in a VictorX4 multiplate reader (PerkinElmer Life Science) using 340 nm as excitation and 615 and 665 nm as emission wavelengths. Assays were performed in triplicates. Final Assay Concentrations of Components: 240 mM KCl, 1 μg/μL BSA, 0.002% Triton-X-100, […] anti GST-Tb cryptate, 2.5 ng/μL Streptavidin-XL665, coactivator peptide (400 nM), LXRβ protein ([…], i.e. 76 nM)

[2] = target: T2, LXRα full length (FL) (Homo sapiens, UniProt Q13133); experiment: LXR Gal4 reporter transient transfection assay (M2H), Gal4α FL; type: cell-based; details: HEK293 cells; read-out: M2H Gal4α FL activity range (EC50)
T2 construct: the full length (FL) proteins of LXRα (amino acids 1-447); NP005684; expressed in transfected cells; host or cells: HEK293
T2 sequence (Q13133 1-447): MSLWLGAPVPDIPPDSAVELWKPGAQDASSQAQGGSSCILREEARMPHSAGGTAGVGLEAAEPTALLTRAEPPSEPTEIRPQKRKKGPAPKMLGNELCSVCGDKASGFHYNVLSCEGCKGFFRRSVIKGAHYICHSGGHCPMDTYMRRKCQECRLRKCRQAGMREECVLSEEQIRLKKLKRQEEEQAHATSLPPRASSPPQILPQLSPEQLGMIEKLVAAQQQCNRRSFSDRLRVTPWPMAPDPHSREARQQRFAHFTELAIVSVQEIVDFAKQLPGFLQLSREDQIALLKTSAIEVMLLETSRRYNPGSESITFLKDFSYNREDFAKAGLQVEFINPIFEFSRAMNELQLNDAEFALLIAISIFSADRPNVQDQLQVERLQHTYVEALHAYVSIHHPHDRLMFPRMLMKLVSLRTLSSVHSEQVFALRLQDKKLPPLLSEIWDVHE
Experimental: (§1) The tested compounds were usually dissolved, tested and stored as 20 mM stock solutions in DMSO. Since sulfonyl acetic acid derivatives tend to decarboxylate under these conditions, these stock solutions were prepared, tested and stored as 20 mM DMSO stock solutions containing 100 mM trifluoroacetic acid (5 equivalents). Sulfonyl acetic acid derivatives are shelf stable as solid at rt for long time as reported by Griesbrecht et al. (Synlett 2010:374) or Faucher et al. (J. Med. Chem. 2004; 47:18).
(§2) LXR Gal4 Reporter Transient Transfection Assays
(§3) LXRα and LXRβ activity status was determined via detection of interaction with coactivator and corepressor proteins in mammalian two-hybrid experiments (M2H). For this, via transient transfection the full length (FL) proteins of LXRα (amino acids 1-447; NP005684; SEQ ID NO:7) or LXRβ-(amino acids 1-461; NP009052; SEQ ID NO:8) or the ligand-binding domains (LBD) of LXRα (amino acids 155-447 SEQ ID NO:3) or LXRβ (amino acids 156-461; SEQ ID NO:4) were expressed from pCMV-AD (Stratagene) as fusions to the transcriptional activation domain of NFkB. As cofactors, domains of either the steroid receptor coactivator 1 (SRC1; amino acids 552-887; SEQ ID NO:5) or of the corepressor NCoR (amino acids 1903-2312 SEQ ID NO:6) were expressed as fusions to the DNA binding domain of the yeast transcription factor GAL4 (from pCMV-BD; Stratagene). Interaction was monitored via activation of a coexpressed Firefly Luciferase Reporter gene under control of a promoter containing repetitive GAL4 response elements (vector pFRLuc; Stratagene). Transfection efficiency was controlled via cotransfection of constitutively active pRL-CMV Renilla reniformis luciferase reporter (Promega). HEK293 cells were grown in minimum essential medium (MEM) with 2 mM L-glutamine and Earle's balanced salt solution supplemented with 8.3% fetal bovine serum, 0.1 mM non-essential amino acids, 1 mM sodium pyruvate, at 37° C. in 5% CO2. 3.5×10^4 cells/well were plated in 96-well cell culture plates in growth medium supplemented with 8.3% fetal bovine serum for 16-20 h to ˜90% confluency. For transfection, medium was taken off and LXR and cofactor expressing plasmids as well as the reporter plasmids are added in 30 μL OPTIMEM/well including polyethylene-imine (PEI) as vehicle. Typical amounts of plasmids transfected/well: pCMV-AD-LXR (5 ng), pCMV-BD-cofactor (5 ng), pFR-Luc (100 ng), pRL-CMV (0.5 ng). Compound stocks were prepared in DMSO, prediluted in MEM to a total volume of 120 μL, and added 4 h after addition of the transfection mixture (final vehicle concentration not exceeding 0.2%). Cells were incubated for additional 16 h, lysed for 10 min in 1× Passive Lysis Buffer (Promega) and Firefly and Renilla luciferase activities were measured sequentially in the same cell extract using buffers containing D-luciferine and coelenterazine, respectively. Measurements of luminescence were done in a BMG-Iuminometer.

[3] = target: T3, LXRβ full length (FL) (Homo sapiens, UniProt P55055, DUP175-175); experiment: LXR Gal4 reporter transient transfection assay (M2H), Gal4β FL; type: cell-based; details: HEK293 cells; read-out: M2H Gal4β FL activity range (EC50)
T3 construct: the full length (FL) proteins of LXRα (amino acids 1-447); NP005684; NP009052; expressed in transfected cells; host or cells: HEK293
T3 sequence (P55055 with tags, fused parts or gaps DUP175-175): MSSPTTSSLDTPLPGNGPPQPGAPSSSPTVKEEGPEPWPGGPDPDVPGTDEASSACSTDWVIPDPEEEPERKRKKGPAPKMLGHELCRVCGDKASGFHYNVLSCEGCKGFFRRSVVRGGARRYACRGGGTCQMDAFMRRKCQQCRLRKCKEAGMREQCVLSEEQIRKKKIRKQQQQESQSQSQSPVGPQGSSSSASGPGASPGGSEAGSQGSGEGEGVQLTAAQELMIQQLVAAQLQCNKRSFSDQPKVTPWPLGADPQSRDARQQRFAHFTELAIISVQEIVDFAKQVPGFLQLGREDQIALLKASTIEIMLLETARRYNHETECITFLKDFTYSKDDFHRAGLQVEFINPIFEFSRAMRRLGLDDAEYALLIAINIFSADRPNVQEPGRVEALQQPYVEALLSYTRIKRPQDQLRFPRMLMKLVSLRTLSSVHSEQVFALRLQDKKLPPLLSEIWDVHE
Experimental: as §1, §2, §3

pEC50 [1]	behavior in FRET assay [1]	pEC50 [2]	pEC50 [3]	SMILES
5.00 to 6.00	ia	5.00 to 6.00	6.00 to 7.00	O=C(O)CS(=O)(=O)c1cccc(-c2ccc(CN(Cc3ccc(C(F)(F)F)o3)S(=O)(=O)c3cccc4ccccc34)cc2)c1 [10/9]
5.00 to 6.00	ia	6.00 to 7.00	6.00 to 7.00	COc1ccc(S(=O)(=O)N(Cc2ccc(-c3cccc(S(=O)(=O)CC(=O)O)c3)cc2)Cc2ccc(C(F)(F)F)o2)c2c1CCCC2 [10/10]
< 5.00	ia	5.00 to 6.00	6.00 to 7.00	Cc1ccc2ccccc2c1S(=O)(=O)N(Cc1ccc(-c2cccc(S(=O)(=O)CC(=O)O)c2)cc1)Cc1cc(C(F)(F)F)co1 [10/16]
5.00 to 6.00	ag	5.00 to 6.00	5.00 to 6.00	COc1cc(C)cc(C)c1S(=O)(=O)N(Cc1ccc(-c2cccc(S(=O)(=O)CC(=O)O)c2)cc1)Cc1ccc(C(F)(F)F)o1 [10/8]
6.00 to 7.00	ag	6.00 to 7.00	> 7.00	Cc1cc(C)c(S(=O)(=O)N(Cc2ccc(-c3cccc(S(=O)(=O)CC(=O)O)c3)cc2)Cc2ccccc2C(F)(F)F)c(C)c1 [11/12]
6.00 to 7.00	ag	> 7.00	> 7.00	Cc1ccc2cccnc2c1S(=O)(=O)N(Cc1ccc(-c2cccc(C(C)(C)C(=O)NO)c2)cc1)Cc1ccc(C(F)(F)F)o1 [Example 30, N-Hydroxy-2-methyl-2-(4′-(((7-methyl-N-((5-(trifluoromethyl)furan-2-yl)methyl)quinoline)-8-sulfonamido)methyl)-[1,1′-biphenyl]-3-yl)propanamide]
5.00 to 6.00	ag	5.00 to 6.00	6.00 to 7.00	Cc1ccc2cccnc2c1S(=O)(=O)N(Cc1ccc(-c2cccc(S(=O)(=O)CC(=O)O)c2)cc1)Cc1ccc(C(F)(F)F)o1 [10/11]

Continued, compound first:

SMILES	pEC50 [1]	behavior in FRET assay [1]	pEC50 [2]	pEC50 [3]
Cc1cc(C)c(S(=O)(=O)N(Cc2ccc(-c3cccc(C(C)(C)C(=O)O)c3)cc2)c2ccc(C(F)(F)F)o2)c(C)c1 [10/7]	6.00 to 7.00	ag	6.00 to 7.00	> 7.00
Cc1cc(C)c(S(=O)(=O)N(Cc2ccc(-c3cc(F)c(CO)c(S(=O)(=O)CC(=O)O)c3)cc2)Cc2ccc(C(F)(F)F)o2)c(C)c1 [Example 9, 2-((5-Fluoro-4-(hydroxymethyl)-4′-(((2,4,6-trimethyl-N-((5-(trifluoromethyl)furan-2-yl)methyl)phenyl)sulfonamido)methyl)-[1,1′-biphenyl]-3-yl)sulfonyl)acetic acid]	5.00 to 6.00	ia	6.00 to 7.00	6.00 to 7.00
Cc1ccc2ccccc2c1S(=O)(=O)N(Cc1ccc(-c2cccc(C(C)(C)C(=O)O)c2)cc1)Cc1cc2ccccc2o1 [10/17]	5.00 to 6.00	ia	6.00 to 7.00	> 7.00
Cc1ccc2ccccc2c1[S+]([O-])N(Cc1ccc(-c2cccc(C(C)(C)C(=O)O)c2)cc1)Cc1ccc(C(F)(F)F)o1 (stereo not drawn) [Example 27, 2-Methyl-2-(4′-((((2-methylnaphthalen-1-yl)sulfinyl)((5-(trifluoromethyl)furan-2-yl)methyl)amino)methyl)-[1,1′-biphenyl]-3-yl)propanoic acid]	6.00 to 7.00	ia	> 7.00	> 7.00
COc1cccc(CN(Cc2ccc(-c3cccc(S(=O)(=O)CC(=O)O)c3)cc2)S(=O)(=O)c2c(C)cc(C)cc2C)c1 [11/3]	< 5.00	ia	5.00 to 6.00	5.00 to 6.00
Cc1cc(C)c(S(=O)(=O)N(Cc2ccc(-c3cccc(S(=O)(=O)CC(=O)O)c3)cc2)Cc2cccc(OC(F)F)c2)c(C)c1 [11/15]	5.00 to 6.00	ia	5.00 to 6.00	6.00 to 7.00
Cc1cc(C)c(S(=O)(=O)N(Cc2ccc(-c3cccc(S(=O)(=O)CC(=O)O)c3)cc2)Cc2cncc(C(F)(F)F)c2)c(C)c1 [11/9]	5.00 to 6.00	ia	5.00 to 6.00	5.00 to 6.00
Cc1cc(C)c(S(=O)(=O)N(Cc2ccc(-c3cccc(S(=O)(=O)C(C)C(=O)O)c3)cc2)Cc2ccc(C(F)(F)F)o2)c(C)c1 (stereo not drawn) [Example 5/1]	5.00 to 6.00	ia	6.00 to 7.00	6.00 to 7.00
